From patent publication US8653087B2, “Pyrido [5, 4-D] pyrimidines as cell proliferation inhibitors” (Boehringer Ingelheim International GmbH, priority 2008, dated 2014) come the findings set out here.

For the test, the target named is B-Raf (V600E)-kinase (Homo sapiens (Human), UniProt P15056, V600E). Kind of test: Kinase test B-RAF (V600E). The format is biochemical. As to conditions: B-RAF (V600E) kinase test, 250 μM ATP. The essentials: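 B-Raf (V600E) (0.5 ng) preincubated with compound 24 h at RT (5% DMSO), then reacted 60 min at RT with 250 μM ATP and biotinylated MEK1 as substrate. Phospho-MEK (Ser217/221) captured on streptavidin and detected by europium time-resolved fluorescence; IC50 from dose-response curves.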

Bounds are passed on as bounds.

Chain of B-Raf (V600E)-kinase (P15056 whole entry V600E): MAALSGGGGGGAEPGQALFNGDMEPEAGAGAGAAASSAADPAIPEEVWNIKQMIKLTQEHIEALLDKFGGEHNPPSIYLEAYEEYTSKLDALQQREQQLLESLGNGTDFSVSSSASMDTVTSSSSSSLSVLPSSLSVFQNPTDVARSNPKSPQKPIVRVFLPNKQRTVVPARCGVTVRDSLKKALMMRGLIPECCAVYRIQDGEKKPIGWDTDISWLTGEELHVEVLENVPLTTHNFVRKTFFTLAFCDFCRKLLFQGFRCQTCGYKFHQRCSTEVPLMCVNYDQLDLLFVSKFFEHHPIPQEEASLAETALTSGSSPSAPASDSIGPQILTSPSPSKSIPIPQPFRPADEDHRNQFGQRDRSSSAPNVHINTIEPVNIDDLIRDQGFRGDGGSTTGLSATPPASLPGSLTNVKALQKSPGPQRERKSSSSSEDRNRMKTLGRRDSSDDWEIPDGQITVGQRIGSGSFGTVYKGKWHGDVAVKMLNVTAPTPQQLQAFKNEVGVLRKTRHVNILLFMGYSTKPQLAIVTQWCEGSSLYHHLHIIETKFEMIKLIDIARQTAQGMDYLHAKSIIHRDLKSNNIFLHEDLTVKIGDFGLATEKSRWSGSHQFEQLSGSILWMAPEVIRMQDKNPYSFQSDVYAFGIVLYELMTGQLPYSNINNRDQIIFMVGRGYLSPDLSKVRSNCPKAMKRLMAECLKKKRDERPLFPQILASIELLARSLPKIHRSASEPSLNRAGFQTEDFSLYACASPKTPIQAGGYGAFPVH

In the case of `COCCN(C)c1ncc2ncnc(Nc3cc(C(=O)Nc4cc(C(F)(F)F)ccn4)ccc3C)c2n1` [III-472], the IC50 (usually the concentration that gives 50% inhibition) worked out at 2 nM.
As for `COCCN(C)c1ncc2ncnc(Nc3cc(C(=O)Nc4ccc(OC)c(C(F)(F)F)c4)ccc3C)c2n1` [III-473], it took 1 nM to reach half-maximal inhibition (IC50).
In the case of `COCCN(C)c1ncc2ncnc(Nc3cc(C(=O)Nc4cc(C(C)(C)C)on4)ccc3C)c2n1` [III-474], the IC50 was 1 nM.
Regarding `Cc1ccc(C(=O)Nc2cc(C(C)(C)C)nn2C)cc1Nc1ncnc2cnc(N(C)CC3CCCCO3)nc12` (stereo not drawn) [III-476], the midpoint of inhibition, the IC50, lay at 17 nM.
As for `Cc1ccc(C(=O)Nc2cc(C(C)(C)C)on2)cc1Nc1ncnc2cnc(N(C)CC3CCCCO3)nc12` (stereo not drawn) [III-480], the figure is 4 nM; as for `Cc1ccc(C(=O)Nc2cc(C(C)(C)C)on2)cc1Nc1ncnc2cnc(N3CCN(CCCN4CCCC4)CC3)nc12` [III-481], 1 nM.
As for `Cc1ccc(C(=O)Nc2cc(C(C)(C)C)on2)cc1Nc1ncnc2cnc(N3CCN(CC4CCOC4)CC3)nc12` (stereo not drawn) [III-482], the IC50 amounted to 4 nM.
`Cc1ccc(C(=O)Nc2cc(C(C)(C)C)on2)cc1Nc1ncnc2cnc(N3CCN(CC4CCCN(C)C4)CC3)nc12` (stereo not drawn) [III-483] registered a 50% inhibitory concentration (IC50) of 1 nM.
In turn, `Cc1ccc(C(=O)Nc2cc(C(C)(C)C)on2)cc1Nc1ncnc2cnc(N3CCN4CCCC4C3)nc12` (stereo not drawn) [III-484] displayed an IC50 of 3 nM.
The result for `Cc1ccc(C(=O)Nc2cc(C(C)(C)C)on2)cc1Nc1ncnc2cnc(N3CCC(N4CCCCC4)CC3)nc12` [III-485] reads 3 nM; that for `Cc1ccc(C(=O)Nc2cc(C(C)(C)C)on2)cc1Nc1ncnc2cnc(N3CCN(C4CCN(C)CC4)CC3)nc12` [III-486], 4 nM; that for `Cc1ccc(C(=O)Nc2cc(C(C)(C)C)on2)cc1Nc1ncnc2cnc(NCC(C)C)nc12` [III-487], 13 nM.
The result for `Cc1ccc(C(=O)Nc2cc(C(C)(C)C)on2)cc1Nc1ncnc2cnc(N3CCC(N4C[C@@H](C)O[C@@H](C)C4)CC3)nc12` [III-488] reads 6 nM; that for `Cc1ccc(C(=O)Nc2cc(C(C)(C)C)on2)cc1Nc1ncnc2cnc(N3CCC(N4CCOCC4)CC3)nc12` [III-489], 1 nM; that for `Cc1ccc(C(=O)Nc2cc(C(C)(C)C)on2)cc1Nc1ncnc2cnc(N3CCC(N4CCCC4)CC3)nc12` [III-490], 2 nM.
With `CCN1CCN(c2ncc3ncnc(Nc4cc(C(=O)Nc5cc(C(C)(C)C)on5)ccc4C)c3n2)CC1` [III-491], half-maximal inhibition (IC50) required 2 nM.
As for `Cc1ccc(C(=O)Nc2cc(C(C)(C)C)on2)cc1Nc1ncnc2cnc(N3CCN(C(C)C)CC3)nc12` [III-492], the figure is 2 nM; as for `Cc1ccc(C(=O)Nc2cc(C(C)(C)C)on2)cc1Nc1ncnc2cnc(N3CCN(C4CC4)CC3)nc12` [III-493], 5 nM; as for `Cc1ccc(C(=O)Nc2cc(C(C)(C)C)on2)cc1Nc1ncnc2cnc(N3CCN(CC(C)C)CC3)nc12` [III-494], 4 nM.
As for `Cc1ccc(C(=O)Nc2cc(C(C)(C)C)on2)cc1Nc1ncnc2cnc(N3CCC(N(C)C)CC3)nc12` [III-495], the figure is 2 nM.
The result for `Cc1ccc(C(=O)Nc2cc(C(C)(C)C)on2)cc1Nc1ncnc2cnc(N3C[C@@H](C)N[C@@H](C)C3)nc12` [III-496] reads 2 nM; that for `Cc1ccc(C(=O)Nc2cc(C(C)(C)C)on2)cc1Nc1ncnc2cnc(N3C[C@H]4C[C@@H]3CN4C)nc12` [III-497], 2 nM.
`Cc1ccc(C(=O)Nc2cc(C(C)(C)C)nn2C)cc1Nc1ncnc2cnc(NCC(C)C)nc12` [III-499] registered an IC50 of 3 nM.
As for `Cc1ccc(C(=O)Nc2cccc(C(C)(C)C)c2)cc1Nc1ncnc2cnc(NCC(C)C)nc12` [III-500], the figure is less than 1 nM.
In the case of `COCCN1CCN(c2ncc3ncnc(Nc4cc(C(=O)Nc5cc(N6CCN(C)CC6)c(F)c(C(F)(F)F)c5)ccc4C)c3n2)CC1` [III-501], the IC50 was 25 nM.
As for `COCCN1CCN(c2ncc3ncnc(Nc4cc(C(=O)Nc5cc(-n6cnc(C)c6)cc(C(F)(F)F)c5)ccc4C)c3n2)CC1` [III-502], the figure is 8 nM.
In the case of `Cc1ccc(C(=O)Nc2cc(N3CCN(C)CC3)c(F)c(C(F)(F)F)c2)cc1Nc1ncnc2cnc(N3CCOCC3)nc12` [III-503], the IC50 worked out at 1 nM.
Compound `Cc1ccc(C(=O)Nc2cc(C(C)(C)C)on2)cc1Nc1ncnc2cnc(N3CCN(C)CC3)nc12` [III-504] had an IC50 of 2 nM.
The compound `COCCN1CCN(c2ncc3ncnc(Nc4cc(C(=O)Nc5cc(C(C)(C)C)cc(NS(C)(=O)=O)c5OC)ccc4C)c3n2)CC1` [III-505] yielded an IC50 of 49 nM.
The result for `Cc1ccc(C(=O)Nc2cc(N3CCN(C)CC3)c(F)c(C(F)(F)F)c2)cc1Nc1ncnc2cnc(NC3CCOC3)nc12` (stereo not drawn) [III-506] reads 4 nM; that for `Cc1cn(-c2cc(NC(=O)c3ccc(C)c(Nc4ncnc5cnc(NC6CCOC6)nc45)c3)cc(C(F)(F)F)c2)cn1` (stereo not drawn) [III-507], 1 nM; that for `Cc1ccc(C(=O)Nc2cc(C(C)(C)C)n[nH]2)cc1Nc1ncnc2cnc(N3CC[C@H](F)C3)nc12` [III-508], 3 nM.
Compound `Cc1ccc(C(=O)Nc2cc(N3CCN(C)CC3)c(F)c(C(F)(F)F)c2)cc1Nc1ncnc2cnc(N3CCN(CC4CCN(C)CC4)CC3)nc12` [III-509] had an IC50 of 5 nM.
`Cc1ccc(C(=O)Nc2cc(C(F)(F)F)ccn2)cc1Nc1ncnc2cnc(N3CCN(CC4CCN(C)CC4)CC3)nc12` [III-510] had an IC50 of less than 1 nM.
As for `Cc1ccc(C(=O)Nc2cc(N3CCN(C)CC3)c(F)c(C(F)(F)F)c2)cc1Nc1ncnc2cnc(N3CC[C@H](F)C3)nc12` [III-511], the figure is 4 nM.
As for `Cc1ccc(C(=O)Nc2cc(C(C)(C)C)n[nH]2)cc1Nc1ncnc2cnc(NCc3ccccc3)nc12` [III-512], the figure is 2 nM; as for `Cc1ccc(C(=O)Nc2cc(C(C)(C)C)nn2C)cc1Nc1ncnc2cnc(N3CCOCC3)nc12` [III-513], 1 nM.
The result for `Cc1ccc(C(=O)Nc2cc(N3CCCN(C)CC3)cc(C(F)(F)F)c2)cc1Nc1ncnc2cnc(N(C)CCF)nc12` [III-514] reads 1 nM; that for `Cc1ccc(C(=O)Nc2cc(C(C)(C)C)n[nH]2)cc1Nc1ncnc2cnc(N3CCOCC3)nc12` [III-515], less than 1 nM.
For the compound `Cc1ccc(C(=O)Nc2cc(C(C)(C)C)on2)cc1Nc1ncnc2cnc(N3CCOCC3)nc12` [III-516], the IC50 was less than 1 nM.
Take `COCCN1CCN(c2ncc3ncnc(Nc4cc(C(=O)Nc5cc(C(C)(C)C)on5)ccc4C)c3n2)CC1` [III-517]: the IC50 is 3 nM.
As for `Cc1ccc(C(=O)Nc2cc(N3CCN(C)CC3)cc(C(F)(F)F)c2)cc1Nc1ncnc2cnc(N(C)CCF)nc12` [III-518], the figure is 2 nM; as for `Cc1ccc(C(=O)Nc2cc(C(F)(F)F)ccn2)cc1Nc1ncnc2cnc(NCC(C)C)nc12` [III-519], less than 1 nM; as for `Cc1ccc(C(=O)Nc2cccc(C(C)(C)C#N)c2)cc1Nc1ncnc2cnc(NCC(C)C)nc12` [III-520], 2 nM.
Consider `Cc1ccc(C(=O)Nc2cc(C(C)(C)C)on2)cc1Nc1ncnc2cnc(NCc3ccccc3)nc12` [III-521], for which the IC50 turned out to be 2 nM.
The result for `Cc1ccc(C(=O)Nc2cc(C(F)(F)F)ccn2)cc1Nc1ncnc2cnc(NCc3ccccc3)nc12` [III-522] reads 3 nM; that for `Cc1ccc(C(=O)Nc2cc(OCCN3CCCC3)cc(C(F)(F)F)c2)cc1Nc1ncnc2cnc(N3CCOCC3)nc12` [III-523], 1 nM; that for `Cc1ccc(C(=O)Nc2cc(N3C[C@@H](C)N[C@@H](C)C3)cc(C(F)(F)F)c2)cc1Nc1ncnc2cnc(N3CCOCC3)nc12` [III-524], 3 nM.
Regarding `Cc1ccc(C(=O)Nc2cc(N3CCOCC3)cc(C(F)(F)F)c2)cc1Nc1ncnc2cnc(N3CCOCC3)nc12` [III-525], the IC50 amounted to 3 nM.
Compound `Cc1ccc(C(=O)Nc2cc(N3CCN(CCO)CC3)cc(C(F)(F)F)c2)cc1Nc1ncnc2cnc(N3CCOCC3)nc12` [III-526] came in with an IC50 of 4 nM.
The result for `Cc1ccc(C(=O)Nc2cc(N3CCN[C@H](C)C3)cc(C(F)(F)F)c2)cc1Nc1ncnc2cnc(N3CCOCC3)nc12` [III-527] reads less than 1 nM; that for `Cc1ccc(C(=O)Nc2cc(CN3CCCC3)c(Cl)c(C(F)(F)F)c2)cc1Nc1ncnc2cnc(N3CCOCC3)nc12` [III-528], 2 nM; that for `Cc1ccc(C(=O)Nc2cc(OCCN3CCOCC3)cc(C(F)(F)F)c2)cc1Nc1ncnc2cnc(N3CCOCC3)nc12` [III-529], 3 nM.
The result for `Cc1ccc(C(=O)Nc2cc(-n3ccnc3)cc(C(F)(F)F)c2)cc1Nc1ncnc2cnc(N3CCOCC3)nc12` [III-530] reads 582 nM; that for `COCCN1CCN(c2ncc3ncnc(Nc4cc(C(=O)Nc5cc(C(F)(F)F)ccc5C#N)ccc4C)c3n2)CC1` [III-531], 13 nM; that for `COCCN1CCN(c2ncc3ncnc(Nc4cc(C(=O)Nc5ccc(C#N)c(C(F)(F)F)c5)ccc4C)c3n2)CC1` [III-532], 2 nM.
The compound `COCCN1CCN(c2ncc3ncnc(Nc4cc(C(=O)Nc5cc(C(F)(F)F)ccc5Cl)ccc4C)c3n2)CC1` [III-533] returned an IC50 of 6 nM.
`COCCN1CCN(c2ncc3ncnc(Nc4cc(C(=O)Nc5cc(C(F)(F)F)ccc5N5CCOCC5)ccc4C)c3n2)CC1` [III-534] registered an IC50 of 106 nM.
On to `COCCN1CCN(c2ncc3ncnc(Nc4cc(C(=O)Nc5cc(OC)cc(C(F)(F)F)c5)ccc4C)c3n2)CC1` [III-535], for which the IC50 was determined as 4 nM.
The result for `COCCN1CCN(c2ncc3ncnc(Nc4cc(C(=O)Nc5ccc(F)c(C(F)(F)F)c5)ccc4C)c3n2)CC1` [III-536] reads 1 nM; that for `COCCN1CCN(c2ncc3ncnc(Nc4cc(C(=O)Nc5cc(C(F)(F)F)ccc5-n5ccnn5)ccc4C)c3n2)CC1` [III-537], 12 nM.
In the case of `COCCN1CCN(c2ncc3ncnc(Nc4cc(C(=O)Nc5cc(C(F)(F)F)ccc5-n5cccn5)ccc4C)c3n2)CC1` [III-538], 10 nM corresponded to half-maximal inhibition (IC50).
As for `COc1c(CN2CCCC2)cc(C(F)(F)F)cc1NC(=O)c1ccc(C)c(Nc2ncnc3cnc(N4CCOCC4)nc23)c1` [III-539], the figure is 2 nM.
